For eight compounds, EC50 results are on record in patent US20260209234A1, “SUBSTITUTED DIHYDROPYRROLO[3,4-D]PYRIMIDINE COMPOUNDS AND THEIR USE IN TREATING MEDICAL CONDITIONS” (Karuna Therapeutics, Inc., priority 2022, published 2026).

The target in one test is T1, hM4 receptors (Homo sapiens, UniProt P08173).
T1 construct: expressed in transfected cells; host or cells: CHO cells
T1 sequence (P08173 1-479): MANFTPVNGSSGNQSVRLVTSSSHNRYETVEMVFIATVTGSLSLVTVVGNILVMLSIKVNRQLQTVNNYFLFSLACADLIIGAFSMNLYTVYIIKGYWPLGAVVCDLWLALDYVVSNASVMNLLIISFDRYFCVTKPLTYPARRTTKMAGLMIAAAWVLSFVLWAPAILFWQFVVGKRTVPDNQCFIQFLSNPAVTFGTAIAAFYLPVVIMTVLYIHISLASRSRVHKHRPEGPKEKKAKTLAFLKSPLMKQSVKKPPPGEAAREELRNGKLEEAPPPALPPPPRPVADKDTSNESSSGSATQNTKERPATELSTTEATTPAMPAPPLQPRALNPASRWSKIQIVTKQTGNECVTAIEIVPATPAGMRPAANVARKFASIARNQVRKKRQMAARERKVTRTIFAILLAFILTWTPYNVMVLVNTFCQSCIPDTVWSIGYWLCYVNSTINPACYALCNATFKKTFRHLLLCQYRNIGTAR
Description: Human M4 PAM pERK assay. It counts as cell-based. As to conditions: CHO cells expressing hM4; EC20 of acetylcholine (10 nM final); TR-FRET. (In general: TR-FRET usually uses a lanthanide donor and a delayed reading to cut background.)

The next test concerns the target T2, rM4 receptors (Rattus norvegicus, UniProt P08485).
T2 construct: expressed in transfected cells; host or cells: CHO cells
T2 sequence (P08485 1-478): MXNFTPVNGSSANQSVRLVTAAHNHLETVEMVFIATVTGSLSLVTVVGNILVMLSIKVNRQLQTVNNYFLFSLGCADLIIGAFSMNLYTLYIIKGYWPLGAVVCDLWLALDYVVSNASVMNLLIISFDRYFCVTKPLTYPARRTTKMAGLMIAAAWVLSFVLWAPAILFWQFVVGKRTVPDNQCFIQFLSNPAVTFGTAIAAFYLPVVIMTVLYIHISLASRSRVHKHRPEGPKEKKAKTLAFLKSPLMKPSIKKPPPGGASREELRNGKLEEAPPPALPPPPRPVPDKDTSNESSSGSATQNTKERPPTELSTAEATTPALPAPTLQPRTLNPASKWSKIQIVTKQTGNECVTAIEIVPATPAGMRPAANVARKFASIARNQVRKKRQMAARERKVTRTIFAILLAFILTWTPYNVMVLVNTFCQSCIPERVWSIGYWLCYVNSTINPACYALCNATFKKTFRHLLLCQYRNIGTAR
Description: Rat M4 PAM pERK assay. It counts as cell-based. As to conditions: CHO cells expressing rM4; EC20 of acetylcholine (10 nM final); TR-FRET.

The next test has as its target T3, human M4 receptor (Homo sapiens, UniProt P08173).
T3 construct: expressed in transfected cells
T3 sequence (P08173 1-479): T1 sequence (P08173 1-479)
Description: M4 GTPγS PAM assay. Type of test: biochemical. The following applies: membranes of CHO-K1 cells stably expressing human M4; EC20 acetylcholine 40 nM; 35S-GTP. The method, boiled down: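 CHO-K1 membranes stably expressing human M4, preincubated with compound and 0.1 μM GDP (final) in 20 mM HEPES, 10 mM MgCl2, 100 mM NaCl, pH 7.4, then EC20 acetylcholine (40 nM final). 35S-GTPγS binding 1 h at room temperature, filtration and scintillation counting.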

On to `COc1nc(C#N)nc2c1C(C)N(C(=O)CC1CN(c3cccc(F)c3F)C1)C2` (single isomer, unassigned) [Compound I-20, 6-(2-(1-(2,3-Difluorophenyl)azetidin-3-yl)acetyl)-4-methoxy-5-methyl-6,7-dihydro-5H-pyrrolo[3,4-d]pyrimidine-2-carbonitrile], for which the EC50 at hM4 receptors, on rM4 receptors and at human M4 receptor was at least 2000 nM each time.
Turning to `COc1nc2c(c(OC)n1)C(C)N(C(=O)CC1CN(c3ccnc(C(F)(F)F)c3)C1)C2` (single isomer, unassigned) [Compound I-68, 1-(2,4-Dimethoxy-5-methyl-5,7-dihydro-6H-pyrrolo[3,4-d]pyrimidin-6-yl)-2-(1-(2-(trifluoromethyl)pyridin-4-yl)azetidin-3-yl)ethan-1-one], the EC50 at hM4 receptors was 100 to 500 nM; on rM4 receptors, 100 to 500 nM; at human M4 receptor it was at most 100 nM.
Turning to `COc1nc(Cl)nc2c1CN(C(=O)CC1CN(c3ccnc(C(F)(F)F)c3)C1)C2` [Compound I-1, 1-(2-Chloro-4-methoxy-5,7-dihydro-6H-pyrrolo[3,4-d]pyrimidin-6-yl)-2-(1-(2-(trifluoromethyl)pyridin-4-yl)azetidin-3-yl)ethan-1-one], the values for the concentration giving a half-maximal response (EC50) on hM4 receptors, at rM4 receptors and at human M4 receptor were 100 to 500 nM, 500 to 2000 nM and at most 100 nM, respectively.
On to `COc1nc(C#N)nc2c1C(C)N(C(=O)CC1CN(c3ccc(C4CC4)nc3)C1)C2` (single isomer, unassigned) [Compound I-32, 6-(2-(1-(6-Cyclopropylpyridin-3-yl)azetidin-3-yl)acetyl)-4-methoxy-5-methyl-6,7-dihydro-5H-pyrrolo[3,4-d]pyrimidine-2-carbonitrile], for which the EC50 on hM4 receptors, on rM4 receptors and on human M4 receptor was at least 2000 nM each time.
Consider `COc1nc(C2CC2)nc2c1CN(C(=O)CC1CN(c3ccnc(C(F)(F)F)c3)C1)C2` [Compound I-79, 1-(2-Cyclopropyl-4-methoxy-5,7-dihydro-6H-pyrrolo[3,4-d]pyrimidin-6-yl)-2-(1-(2-(trifluoromethyl)pyridin-4-yl)azetidin-3-yl)ethan-1-one], for which the EC50 at hM4 receptors was in the range of 500 to 2000 nM; on rM4 receptors it was 500 to 2000 nM; at human M4 receptor, 100 to 500 nM.
With `COc1nc(C#N)nc2c1C(C)N(C(=O)CC1CN(c3ccnc(C4CC4)c3)C1)C2` (single isomer, unassigned) [Compound I-12, 6-(2-(1-(2-Cyclopropylpyridin-4-yl)azetidin-3-yl)acetyl)-4-methoxy-5-methyl-6,7-dihydro-5H-pyrrolo[3,4-d]pyrimidine-2-carbonitrile], the values for the EC50 on hM4 receptors, at rM4 receptors and at human M4 receptor were at most 100 nM, 500 to 2000 nM and at most 100 nM, respectively.
For `COc1nc(C)nc2c1CN(C(=O)CC1CN(c3ccc(C(F)(F)F)nc3)C1)C2` [Compound I-44, 1-(4-Methoxy-2-methyl-5,7-dihydro-6H-pyrrolo[3,4-d]pyrimidin-6-yl)-2-(1-(6-(trifluoromethyl)pyridin-3-yl)azetidin-3-yl)ethan-1-one], the EC50 on hM4 receptors was at least 2000 nM; on rM4 receptors it was 500 to 2000 nM; on human M4 receptor, at least 2000 nM.
For `COc1nc2c(c(OC)n1)C(C)N(C(=O)CC1CN(c3ccc(C#N)cc3)C1)C2` (single isomer, unassigned) [Compound I-65, 4-(3-(2-(2,4-dimethoxy-5-methyl-5,7-dihydro-6H-pyrrolo[3,4-d]pyrimidin-6-yl)-2-oxoethyl)azetidin-1-yl)benzonitrile], the EC50 on hM4 receptors, at rM4 receptors and on human M4 receptor was at least 2000 nM in each case.

As usually defined, the EC50 is the concentration at which the effect is half-maximal. A lower EC50 goes with a more potent agent.
